Active and inactive are the calls of the source. No cut-off for these calls is given here.
Legend:
[1] = biological target: T1, Steroidogenic acute regulatory protein, mitochondrial (Mus musculus) (UniProt P51557); assay: Inhibition of STAR in mouse MA-10 cells assessed as inhibition of dbcAMP-stimulated […] at 10 uM after 2 hrs by RIA; format: cell-based
T1 sequence (whole entry): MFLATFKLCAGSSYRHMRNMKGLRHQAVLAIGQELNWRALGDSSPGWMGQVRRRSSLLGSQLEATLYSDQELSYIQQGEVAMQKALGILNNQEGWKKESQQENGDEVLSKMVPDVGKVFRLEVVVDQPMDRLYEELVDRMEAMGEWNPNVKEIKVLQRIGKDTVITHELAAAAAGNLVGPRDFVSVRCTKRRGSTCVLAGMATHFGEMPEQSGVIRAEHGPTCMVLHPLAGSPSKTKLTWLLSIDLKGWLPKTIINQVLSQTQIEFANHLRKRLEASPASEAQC

[2] = Inhibition of 22R-hydroxycholesterol-induced steroidogenesis in mouse MA-10 cells assessed as progesterone synthesis per mg of protein at 10 uM after 2 hrs by RIA; format: cell-based; conditions: ma-10, 2 h

Row | SMILES | inhibition [1] | Activity [2] [ng]
1 | C[C@]12CCC(=O)C=C1CC[C@@H]1[C@@H]2[C@@H](O)C[C@@]2(C)[C@H]1CC[C@]2(O)C(=O)CO | inactive | –
2 | CC(=O)O[C@H]1CC[C@@]2(C)C(=CC[C@H]3[C@@H]4CC(O)[C@H]([C@H](C)OC(C)=O)[C@@]4(C)CC[C@@H]32)C1 (stereo partly drawn) | inactive | –
3 | C[C@H](CCC(=O)O)[C@H]1CC[C@H]2[C@@H]3CC=C4C[C@@H](O)CC[C@]4(C)[C@H]3CC[C@]12C | inactive | –
4 | CC(=O)OCC(=O)[C@H]1CC[C@H]2[C@@H]3CC=C4C[C@@H](O)CC[C@]4(C)[C@H]3CC[C@]12C | 50% | 1301
5 | C[C@]12CC[C@H]3[C@@H](CC=C4C[C@@H](O)CC[C@@]43C)[C@@H]1C/C(=C/c1ccc(OC(F)F)cc1)[C@@H]2O | 50% | 923
6 | C[C@]12CC(O)[C@H]3[C@@H](CCC4=CC(=O)CC[C@@]43C)[C@@H]1CC[C@@H]2C(=O)O (stereo partly drawn) | inactive | –
